Measured values reported in PubChem BioAssay (NCI).
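In this assay, cells in 96-well plates receive the compound at five concentrations for 48 hours. Endpoints are linearly interpolated between the surrounding concentrations. Abbreviation: GI50, concentration required for 50% inhibition of growth. TGI marks complete inhibition of growth.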

Key:
Experiment in all cases: DTP human tumour cell line panel, 48 h
[1] = tested on: 786-0 renal
[2] = tested on: A498 renal
[3] = tested on: A549 NSCLC
[4] = tested on: ACHN renal
[5] = tested on: BT-549 breast
[6] = tested on: CAKI-1 renal
[7] = tested on: CCRF-CEM leukemia
[8] = tested on: COLO 205 colon
[9] = tested on: DU-145 prostate
[10] = tested on: EKVX NSCLC
[11] = tested on: HCC-2998 colon
[12] = tested on: HCT-116 colon
[13] = tested on: HCT-15 colon
[14] = tested on: HOP-62 NSCLC
[15] = tested on: HOP-92 NSCLC
[16] = tested on: HS 578T breast
[17] = tested on: HT29 colon
[18] = tested on: IGROV1 ovarian
[19] = tested on: K-562 leukemia
[20] = tested on: KM12 colon
[21] = tested on: LOX IMVI melanoma
[22] = tested on: M14 melanoma
[23] = tested on: MALME-3M melanoma
[24] = tested on: MCF7 breast
[25] = tested on: MDA-MB-435
[26] = tested on: MOLT-4 leukemia
[27] = tested on: NCI-H226 lung
[28] = tested on: NCI-H23 lung
[29] = tested on: NCI-H460 lung
[30] = tested on: NCI-H522 lung
[31] = tested on: NCI/ADR-RES ovarian
[32] = tested on: OVCAR-4 ovarian
[33] = tested on: OVCAR-5 ovarian
[34] = tested on: PC-3 prostate
[35] = tested on: RPMI-8226 leukemia
[36] = tested on: RXF 393 renal
[37] = tested on: SF-268 CNS
[38] = tested on: SF-295 CNS
[39] = tested on: SF-539 CNS
[40] = tested on: SK-MEL-5 melanoma
[41] = tested on: SK-OV-3 ovarian
[42] = tested on: SN12C renal
[43] = tested on: SNB-19 CNS
[44] = tested on: SNB-75 CNS
[45] = tested on: SW-620 colon
[46] = tested on: TK-10 renal
[47] = tested on: U251 CNS
[48] = tested on: UACC-257 melanoma
[49] = tested on: UACC-62 melanoma
[50] = tested on: UO-31 renal

**Q.** Which results are given for `N#Cc1c(NC(=O)c2ccc(F)c(Cl)c2)sc2c1CCC(=O)C2`?
**A.** GI50 [1]: 389 nM; TGI [1]: 5780 nM; GI50 [2]: 2400 nM; TGI [2]: 6440 nM; GI50 [3]: 2640 nM; TGI [3]: > 29200 nM; GI50 [4]: 349 nM; TGI [4]: 1080 nM; GI50 [5]: 223 nM; TGI [5]: 696 nM; GI50 [6]: 302 nM; TGI [6]: 1130 nM; GI50 [7]: 216 nM; TGI [7]: > 24400 nM; GI50 [8]: 423 nM; TGI [8]: 1380 nM; GI50 [9]: 4040 nM; TGI [9]: > 100000 nM; GI50 [10]: 1060 nM; TGI [10]: 4800 nM; GI50 [11]: 1320 nM; TGI [11]: 3330 nM; GI50 [12]: 233 nM; TGI [12]: 1110 nM; GI50 [13]: 368 nM; TGI [13]: 2060 nM; GI50 [14]: 2510 nM; TGI [14]: > 28300 nM; GI50 [15]: 231 nM; TGI [15]: 724 nM; GI50 [16]: 523 nM; TGI [16]: 3760 nM; GI50 [17]: 347 nM; TGI [17]: 1310 nM; GI50 [18]: 592 nM; TGI [18]: 2380 nM; GI50 [19]: 301 nM; TGI [19]: > 100000 nM; GI50 [20]: 419 nM; TGI [20]: 1930 nM; GI50 [21]: 404 nM; TGI [21]: 4440 nM; GI50 [22]: 365 nM; TGI [22]: 1750 nM; GI50 [23]: 485 nM; TGI [23]: 1690 nM; GI50 [24]: 337 nM; TGI [24]: 15000 nM; GI50 [25]: 436 nM; TGI [25]: 2400 nM; GI50 [26]: 332 nM; TGI [26]: > 26000 nM; GI50 [27]: 2040 nM; TGI [27]: 6250 nM; GI50 [28]: 371 nM; TGI [28]: 2080 nM; GI50 [29]: 1940 nM; TGI [29]: > 33300 nM; GI50 [30]: 200 nM; TGI [30]: 671 nM; GI50 [31]: 449 nM; TGI [31]: > 100000 nM; GI50 [32]: 578 nM; TGI [32]: 2000 nM; GI50 [33]: 728 nM; TGI [33]: 3020 nM; GI50 [34]: 237 nM; TGI [34]: 1350 nM; GI50 [35]: 155 nM; TGI [35]: 684 nM; GI50 [36]: 353 nM; TGI [36]: 1300 nM; GI50 [37]: 890 nM; TGI [37]: 6360 nM; GI50 [38]: 1120 nM; TGI [38]: 3890 nM; GI50 [39]: 312 nM; TGI [39]: 1150 nM; GI50 [40]: 1230 nM; TGI [40]: 2590 nM; GI50 [41]: 1470 nM; TGI [41]: 3030 nM; GI50 [42]: 351 nM; TGI [42]: 1560 nM; GI50 [43]: 672 nM; TGI [43]: 10400 nM; GI50 [44]: 1420 nM; TGI [44]: 4210 nM; GI50 [45]: 406 nM; TGI [45]: 1870 nM; GI50 [46]: 440 nM; TGI [46]: 2020 nM; GI50 [47]: 353 nM; TGI [47]: 1360 nM; GI50 [48]: 1520 nM; TGI [48]: 4260 nM; GI50 [49]: 426 nM; TGI [49]: 1940 nM; GI50 [50]: 298 nM; TGI [50]: 1170 nM
